Measurements: US9783803B2, “Inhibition of NEAT1 for treatment of solid tumors” (VIB VZW, priority 2014, dated 2017)
Entries after “also recorded” stand apart in the source; their conditions may differ.

Experiments:
NEAT1 [1] = assay: NEAT1 induction under low/chronic or high stress conditions; assay type: cell-based, human
From the text: FIGS. 4A-4F. NEAT1 is induced in human and mouse cells exposed to low stress conditions including exposure to the inducer of senescence aurora-kinase inhibitor AZD1152-HQPA (AZD; FIG. 4A), low doses of Rotenone (Rot; FIG. 4B) that promotes oxidative stress, low doses of doxorubicin (Doxo, FIG. 4C) and replicative stress-induced damage (RS; FIG. 4D).
It has been shown that p53 is induced in MEFs during passages as a response to increasing oxidative stress levels generated by culturing of the cells in normoxic conditions. […] This is in line with chronic stress caused by UV radiation.
The same is true for cells that are exposed to high doses of irradiation (FIG. 4F).

MCF-7 cells = assay: Paraspeckles formation by NEAT1 RNA-FISH in Nutlin3a-treated MCF-7 cells; assay type: cell-based, human; details: for Nutlin-induced paraspeckles formation: MCF-7 following Nutlin exposure, gapmer transfection
Experimental: FIGS. 3A and 3B. […] FIG. 3A: MCF-7 cells were exposed to Nutlin3a (for 24 hours) and paraspeckles formation (red dots) was assessed by FISH-analysis with a NEAT1-specific probe set. Nuclei were counter-stained with DAPI (Blue). FIG. 3B: Quantification of paraspeckles formation in MCF-7 cells exposed to Nutlin3a before (mock) and after transfection of the cells with a control/scramble gapmer (scr) or gapmers targeting the NEAT1 transcripts (gap4 and gap6).
(§1) To differentiate between the different isoforms of NEAT, the following strategy was used. All qPCRs labeled NEAT1 or NEAT1_1 were done with primers targeting the region of +/−2200 bp. The knock-down probes labeled as such also target the region between 2000 and 3756 bp. The RNA-FISH probeset used is made up of a large set of oligos targeting region 1-3756 bp. The primers and knock-down probes labeled NEAT1_2 (the long transcript) target a region of +/−21300 bp. The RNA-FISH probes (again a set of oligos) target the portion from 3800-11700 bp to avoid detection of shorter isoforms.
A similar observation in MCF-7 cells treated with p53 shRNA confirms again that this induction is p53-dependent (data not shown). Thus, p53 stimulates the formation of paraspeckles in these cells.

NEAT1 [2] = assay: NEAT1 induction by Nutlin3a (RNA-seq, qPCR) in human cell lines; assay type: cell-based
Experimental: (§2) FIG. 1 provides evidence that NEAT1 is a direct p53 target gene in the breast cancer cell line MCF-7. RNA-seq and p53 ChIPseq experiments have been carried out in MCF-7 cells following exposure to the MDM2 antagonist Nutlin3a for 24 hours.
(§3) This upregulation is mediated through the recruitment of p53 to the NEAT1 promoter as illustrated by the increase intensity of the p53-ChIP-seq peaks (green in FIG. 1).
Both isoforms are affected, with the effect being stronger for the longer isoform (NEAT1_2).
as §1

NEAT1 promoter = assay: p53 ChIP-seq in MCF-7 cells; assay type: cell-based, human; details: 24 hours
Experimental: as §2, §3

NEAT1 [3] = assay: NEAT1 induction by Nutlin in mouse embryonic fibroblasts; assay type: cell-based; details: early passage (P3) MEFs
From the text: FIGS. 7A-7F. NEAT1 is required for primary cells immortalization. NEAT1 expression in induced in mouse embryonic fibroblasts (MEFs) upon Nutlin3a exposure (FIG. 7A) and replicative passaging on a 3T3 protocol (FIG. 7B).

NEAT1 [4] = assay: NEAT1 knock-down by LNA-gapmers (relative RNA levels, qPCR); assay type: cell-based, human; details: for NEAT1 expression (knock-down): gapmer transfection, cancer cell lines; for NEAT1 isoforms inhibited: long (NEAT1_2) versus short isoform
From the text: (§4) FIGS. 8A-8D. NEAT1 KD reduces the cell viability of human cancer cell lines. Gapmers 4 and 5 (gap 4 and 5) were used to knock-down the expression of all NEAT1 isoforms, and Gapmer 6 (gap 6) to specifically KD expression of the long isoform, in a series of cancer cell lines.
FIGS. 9A-9C. Knock-down of NEAT1 impairs HR and NHEJ DNA repair (FIG. 9A) but not Alt-NHEJ or SSA (FIG. 9B). […] SCR: scrambled control. Blue bars, all NEAT1 isoforms. Green bars, long NEAT1 isoform.
as §1
(§5) To further extend the anti-oncogenic effects observed in NEAT1 KO mice, NEAT1 was inhibited in different cancer cells using LNA-gapmers.
To confirm the hypothesis that NEAT1 inhibition interferes with DNA repair, U2OS cells were exposed to different concentrations of the DNA-damaging agent bleomycin. In NEAT1-inhibited cells, DNA damage (as measured by γH2AX intensity) is indeed increased (FIG. 9C, last three panels). Thus, DNA repair is severely impaired in NEAT1 KD cells.

BJ = assay: Paraspeckles formation in immortalized human diploid fibroblast cell line BJ; assay type: cell-based; details: BJ cells, LNA-gapmer transfection
cancer cell lines [5] = assay: Paraspeckles formation in cancer cell lines after gapmer transfection; assay type: cell-based, human
From the text: as §4, §5

cancer cell lines [6] = assay: Apoptosis, caspase 3/7 glow assay and FACS analysis; assay type: cell-based, human; details: gapmer transfection
From the text: as §4, §5

MCF-7 = assay: WST1-assay of cell growth / metabolic activity; assay type: cell-based, human; details: gapmer transfection
From the text: as §4, §5

Q: Which NEAT1 induction (NEAT1 [1]; melanoma cells Mel 501 undergoing senescence) does the source give for `CCN(CCO)CCCOc1ccc2c(Nc3cc(CC(=O)Nc4cccc(F)c4)[nH]n3)ncnc2c1` [AZD, AZD1152-HQPA] here?
A: induced

Q: Which results are given for `COc1cccc2c1C(=O)c1c(O)c3c(c(O)c1C2=O)C[C@@](O)(C(=O)CO)C[C@@H]3O[C@H]1C[C@H](N)[C@H](O)[C@H](C)O1` [Doxorubicin]?
A: NEAT1 induction (NEAT1 [1]; higher dose (5 μM)): not significantly; NEAT1 induction (NEAT1 [1]; low dose): induced

Q: Which paraspeckles formation (MCF-7 cells; MCF-7 cells, Nutlin alone) does the source give for `COc1ccc(C2=N[C@@H](c3ccc(Cl)cc3)[C@@H](c3ccc(Cl)cc3)N2C(=O)N2CCNC(=O)C2)c(OC(C)C)c1` [Nutlin3a] here?
A: induces paraspeckles formation

Q: And the “transcription of NEAT1 (RNA-seq)” value (NEAT1 [2]; MCF-7 cells, 24 hours)?
A: induces transcription of NEAT1

Q: And the “expression of NEAT1” value (NEAT1 [2]; U2OS, A459, human ES cells, BJ)?
A: induces expression of NEAT1

Q: And the NEAT1 induction (NEAT1 [2]; colorectal cancer cell line HCT116)?
A: NEAT1 induction in response to Nutlin can be seen

Q: What about the NEAT1 induction (NEAT1 [2]; isogenic p53 KO HCT116 cell line) of the same compound?
A: not in an isogenic p53 KO HCT116 cell line

Q: What about the “recruitment of p53 to the NEAT1 promoter (p53-ChIP peaks)” value (NEAT1 promoter) of the same compound?
A: p53 is directly recruited to the NEAT1 promoter

Q: What about the “expression of NEAT1” value (NEAT1 [3]) of the same compound?
A: induces expression of NEAT1

Q: With `C=C(C)[C@H]1Cc2c(ccc3c2O[C@@H]2COc4cc(OC)c(OC)cc4[C@@H]2C3=O)O1` [rotenone] as the compound, how does the NEAT1 induction (NEAT1 [1]; BJ cells, oxidative stress) read?
A: induced

Q: How did the “NEAT1 expression (knock-down)” value (NEAT1 [4]; listed as gap 4) turn out when “NEAT1-Gapmer4: LNA-gapmer, SEQ ID NO: 2, GACGTAACAGAATT; inhibits both long and short isoform of NEAT1 (LNA gapmer, LNA positions and linkages not given here)” was run?
A: efficiently knockdown NEAT1; also recorded: robust decrease in NEAT1 expression

Q: And the NEAT1 isoforms inhibited (NEAT1 [4])?
A: inhibit both the long and short isoform of NEAT1

Q: What about the Nutlin-induced paraspeckles formation (MCF-7 cells) of the same compound?
A: dramatically attenuated

Q: And the formation of paraspeckles (BJ)?
A: decrease the formation of paraspeckles

Q: And the paraspeckles formation (cancer cell lines [5])?
A: robust decrease

Q: What about the “apoptosis (caspase 3/7 glow assay, FACS analysis)” value (cancer cell lines [6]) of the same compound?
A: induction of apoptosis

Q: What about the “MCF-7 growth (WST1-assay)” value (MCF-7) of the same compound?
A: decrease MCF-7 growth significantly

Q: “NEAT1-Gapmer5: LNA-gapmer, SEQ ID NO: 3, TAAGCACTTTGGAAAG; inhibits both long and short isoform of NEAT1 (LNA gapmer, LNA positions and linkages not given here)” was tested. Which “NEAT1 expression (knock-down)” value (NEAT1 [4]; listed as gap 5) did it give?
A: efficiently knockdown NEAT1; also recorded: robust decrease in NEAT1 expression

Q: And the NEAT1 isoforms inhibited (NEAT1 [4])?
A: inhibit both the long and short isoform of NEAT1

Q: What about the paraspeckles formation (cancer cell lines [5]) of the same compound?
A: robust decrease

Q: What about the “apoptosis (caspase 3/7 glow assay, FACS analysis)” value (cancer cell lines [6]) of the same compound?
A: induction of apoptosis

Q: What about the “MCF-7 growth (WST1-assay)” value (MCF-7) of the same compound?
A: decrease MCF-7 growth significantly

Q: Which results are given for “NEAT1-Gapmer6: LNA-gapmer, SEQ ID NO: 4, CTCACACGTCCATCT; specific for the long isoform of NEAT1 (LNA gapmer, LNA positions and linkages not given here)”?
A: NEAT1 expression (knock-down) (NEAT1 [4]): efficiently knockdown NEAT1; NEAT1 isoforms inhibited (NEAT1 [4]): specific for the long isoform; KD efficiency (NEAT1 [4]; long transcript NEAT1_2, U2OS cells): about 50%; Nutlin-induced paraspeckles formation (MCF-7 cells): dramatically attenuated; formation of paraspeckles (BJ): decrease the formation of paraspeckles; MCF-7 growth (WST1-assay) (MCF-7): decrease MCF-7 growth significantly
